Data set [1] in a line: log octanal/water (Ko/w) partition coefficient. The class given is physicochemical. The source says: A practical skin patch is planned for delivery of JP4-039 or other compounds delivered herein. The patch can be administered to a subject before, during or after exposure to radiation, including 24 hr or later after irradiation exposure of the subject. In preliminary studies, we sought to characterize the absorption/penetration of a topically applied representative GS-Nitroxide XJB-5-125 in mouse skin. XJB-5-125 was selected as a potential topical agent based on its ability to inhibit ROS generation, inhibit apoptosis and suppress oxidative damage to mitochondrial lipids. […] The physical properties of a chemical are critical to its ability to penetrate into and through the skin. Two important factors are the log octanal/water (Ko/w) partition coefficient and the molecular weight. For XJB-5-125, the log Ko/w=4.5 and molecular weight is 956. The lipophilicity “rule” is based on the need for a compound to partition out of the lipophilic stratum corneum and into the more hydrophilic epidermis and dermis.

Data set [2] is described as follows: Topical and transdermal absorption through mouse skin (Bronaugh diffusion cell, EPR). The class given is in vitro ADME. As to conditions: preliminary experiment. The source says: A small piece of skin (2 cm^2) was placed in a Bronaugh style flow-through diffusion cell system (PermeGear, Riegelsville, Pa.) (FIG. 22). It was then sandwiched between two pieces of the inert polymer Kel-F and clamped shut to prevent leakage. The epidermal side faces upward and is exposed to the donor solution (test solution), and the dermal side is in contact with the receptor fluid. The exposed surface area is 0.79 cm^2 (circular chamber with 1 cm diameter). The skin forms a water-tight seal in the flow through chamber so the receiving fluid (PBS+25% ethanol) on the dermal side will contain the XJB-5-125 only if it has penetrated through the skin. The receiver chamber was perfused with this buffer that then passes to a fraction collector via Teflon tubing. The PBS+25% ethanol was used because it is an effective sink for hydrophobic compounds and produces better in vitro/in vivo correlations than other receiver solutions. The skin was maintained at 32° C. by placing the chamber in a metal block heated via a recirculating water bath. […]
EPR spectra were recorded at 334.7 mT, center field; 20 mW, power; 0.079 mT, field modulation; 5 mT, sweep width; 400 and 4000, receiver gain; 0.1 s, time constraint. […]
Further, the total transdermal absorption after 24 hours and the level of XJB-5-125 present in the viable skin can be successfully measured using the techniques described herein. […]

Data set [3] has as its system 32D cl 3 murine hematopoietic cells. The experiment in a line: Irradiation survival curves of 32D cl 3 cells. As to conditions: cells incubated in compound. Format: cell-based, mouse. As for the experimental part:
FIG. 16 illustrates the effect of GS conjugated nitroxide, XJB-5-125, on gamma-irradiation dose survival curves of 32D cl 3 murine hematopoietic cells.
Irradiation survival curves were performed on cells from the 32D cl 3 mouse hematopoietic progenitor cell line, incubated in 10 μM JP4-039 for 1 hour before irradiation, or plated in methycellulose containing 10 μM JP4-030 after irradiation. Cells were irradiated from 0 to 8 Gy, plated in 0.8% methycellulose containing media, and incubated for 7 days at 37° C. Colonies of greater than 50 cells were counted and data analyzed by linear quadratic and single-hit, multi-target models.

The source of these data is patent US8748369B2, “Use of targeted nitroxide agents in bone healing” (University of Pittsburgh-Of the Commonwealth System of …, priority 2009, dated 2014).

Molecules are shown by their SMILES. Where a SMILES comes first, the peptide text is derived from it. [ ]: non-standard residue; d: D form. The star is where a group is joined. NH(TEMPO-4-yl) = CC1(C)CC(N*)CC(C)(C)N1[O]; Orn = NCCC[C@H](N)C(=O)O; Cbz = O=C(OCc1ccccc1)*; Boc = CC(C)(C)OC(=O)*

For the molecule `CC(C)C[C@H](NC(=O)OC(C)(C)C)C(=O)N[C@H](Cc1ccccc1)C(=O)N1CCC[C@H]1C(=O)N[C@H](C(=O)N[C@@H](CCCNC(=O)OCc1ccccc1)C(=O)NC1CC(C)(C)N([O])C(C)(C)C1)C(C)C` [XJB-5-125] (Boc-L[dF]PV[Orn](Cbz)-{NH(TEMPO-4-yl)}), in data set [1], the “log Ko/w” value came out at 4.5. In data set [2], the “penetration of intact skin” value is listed as “can sufficiently penetrate intact skin”. For the same molecule, in data set [3], the “Do of gamma-irradiation survival curve” value is on record as 1.138 Gy and the “n (shoulder on the survival curve)” value is 18.24.
